Converted amounts (≈) assume the structure as drawn.
Assays:
patients with COPD = details: double blinded clinical trials; cited from earlier work
[1] = Stability in human plasma; type: in vitro ADME; details: room temperature
Protocol: Stability in Mouse and Human Plasma
The stability of the compounds in mouse and human plasma was performed using protein precipitation as sample clean-up and HPLC-MS detection. The plasma stability studies of the compounds was performed at room temperature for up to 4 hours. A stock solution of […] in DMSO was prepared for each compound. For the plasma stability samples, 100 μL of the stock solution was diluted with 3.9 mL of either mouse or human plasma to a final concentration of […]. The plasma was left to equilibrate for 10 minutes at room temperature before the first analysis. For each analyzed time point ([…]) a 100 μL aliquot of the plasma was removed and protein precipitation (PPT) was performed on the aliquot by adding 900 μL of (ACN:DMSO) 95:5. The precipitated sample was shaken for 60 seconds and then centrifuged. The supernatant was transferred to an HPLC vial and analyzed using HPLC-MS. The chromatographic signal area of the samples at the different time points were then compared against each other, by setting the initial analysis at t=0 min as 100% and then calculating the %-value for each subsequent time point.
The chromatographic separation was performed on a Waters HPLC-MS system using a 50×2.1 mm×Bridge C18 column and a gradient elution of Water with 0.1% formic acid and acetonitrile with 0.1% formic acid. The analytes were analyzed in positive electro-spray mode using the (M+H)^+ in single ion recording.

[2] = tested on: Streptococcus pneumoniae (ATCC49619); experiment: Assay 1: antimicrobial broth dilution on microtiter plates, Streptococcus pneumoniae; type: cell-based; details: Str
Protocol: The antimicrobial activity of each Example compound was investigated. The Minimal Inhibitory Concentration (MIC—the minimal dose required to inhibit bacterial growth) and the Minimal Bactericidal Concentration (MBC—the minimal dose required to kill bacteria) were measured for each compound for Streptococcus pneumoniae (ATCC49619), Staphylococcus aureus (ATCC29213), Bacillus megaterium (BM-11) and Escherichia coli (D-21) using an antimicrobial broth dilution method on microtiter plates. The Minimal Inhibitory Concentration (MIC) was also measured for each example compound and azithromycin with Mycobacterium avium complex (MAC). […]
The Minimal Inhibitory Concentration (MIC—the minimal dose required to inhibit bacterial growth) and the Minimal Bactericidal Concentration (MBC—the minimal dose required to kill bacteria) were measured for each compound for Streptococcus pneumoniae (ATCC49619), Staphylococcus aureus (ATCC29213), Bacillus megaterium (BM-11) and Escherichia coli (D-21) using an antimicrobial broth dilution method on 96 well microtiter plates. […]
After addition of the bacterial solution, the plates were incubated at 35° C. for 18 h. The bacterial growth of each well was then recorded and then the Minimal Inhibitory Concentration (MIC) and Minimal Bactericidal Concentration ([…]) were determined.

Escherichia coli (D-21) = experiment: Assay 1: antimicrobial broth dilution on microtiter plates, Escherichia coli; type: cell-based; details: E. coli (D-21)
Protocol: The antimicrobial activity of each Example compound was investigated. The Minimal Inhibitory Concentration (MIC—the minimal dose required to inhibit bacterial growth) and the Minimal Bactericidal Concentration (MBC—the minimal dose required to kill bacteria) were measured for each compound for Streptococcus pneumoniae (ATCC49619), Staphylococcus aureus (ATCC29213), Bacillus megaterium (BM-11) and Escherichia coli (D-21) using an antimicrobial broth dilution method on microtiter plates. The Minimal Inhibitory Concentration (MIC) was also measured for each example compound and azithromycin with Mycobacterium avium complex (MAC). Mycobacterium avium complex (MAC) is a term that covers both M. avium and M. intracellulare.
The antibacterial activities of example compounds 1 to 31 and azithromycin were investigated. The Minimal Inhibitory Concentration (MIC—the minimal dose required to inhibit bacterial growth) and the Minimal Bactericidal Concentration (MBC—the minimal dose required to kill bacteria) were measured for each compound for Streptococcus pneumoniae (ATCC49619), Staphylococcus aureus (ATCC29213), Bacillus megaterium (BM-11) and Escherichia coli (D-21) using an antimicrobial broth dilution method on 96 well microtiter plates.
A 256 μg/ml stock solution of each compound was prepared in Mueller-Hinton Broth and then further diluted by a 2-fold serial dilution. […]

CC[C@H]1OC(=O)[C@H](C)[C@@H](O[C@H]2C[C@@](C)(OC)[C@@H](O)[C@H](C)O2)[C@H](C)[C@@H](O[C@@H]2O[C@H](C)C[C@H](N(C)C)[C@H]2O)[C@](C)(O)C[C@@H](C)CN(C)[C@H](C)[C@@H](O)[C@]1(C)O [Azithromycin, (2R,3S,4R,5R,8R,10R,11R,12S,13S,14R)-11-[(2S,3R,4S,6R)-4-(dimethylamino)-3-hydroxy-6-methyl-tetrahydropyran-2-yl]oxy-2-ethyl-3,4,10-trihydroxy-13-[(2R,4R,5S,6S)-5-hydroxy-4-methoxy-4,6-dimethyl-tetrahydropyran-2-yl]oxy-3,5,6,8,10,12,14-heptamethyl-1-oxa-6-azacyclopentadecan-15-one]
reduction of the hospitalisation rate and disease related exacerbations (patients with COPD): 30%
Degradation in Human Plasma at RT [1]: 6 % per hour
MBC [2]: 0.06 µg/mL (≈ 0.0801 µM)
MIC [2]: 0.06 µg/mL (≈ 0.0801 µM)
MBC (Escherichia coli (D-21)): 32 µg/mL (≈ 42.7 µM)
MIC (Escherichia coli (D-21)): 4 µg/mL (≈ 5.34 µM)
